Experiments:
[1] = target: T1, MALT1 (Homo sapiens, UniProt Q9UDY8); assay: MALT-1 Fluorogenic Peptide Cleavage Assay (MALT1 inhibition assay); format: biochemical; details: Avi-tagged FL MALT-1, Ac-LRSR-AMC peptide substrate, 30 min pre-incubation, 90 min reaction
T1 construct: Avi-tagged FL MALT-1 (Pharmaron, stored at −70° C.); Avi tag
T1 sequence (Q9UDY8 1-824): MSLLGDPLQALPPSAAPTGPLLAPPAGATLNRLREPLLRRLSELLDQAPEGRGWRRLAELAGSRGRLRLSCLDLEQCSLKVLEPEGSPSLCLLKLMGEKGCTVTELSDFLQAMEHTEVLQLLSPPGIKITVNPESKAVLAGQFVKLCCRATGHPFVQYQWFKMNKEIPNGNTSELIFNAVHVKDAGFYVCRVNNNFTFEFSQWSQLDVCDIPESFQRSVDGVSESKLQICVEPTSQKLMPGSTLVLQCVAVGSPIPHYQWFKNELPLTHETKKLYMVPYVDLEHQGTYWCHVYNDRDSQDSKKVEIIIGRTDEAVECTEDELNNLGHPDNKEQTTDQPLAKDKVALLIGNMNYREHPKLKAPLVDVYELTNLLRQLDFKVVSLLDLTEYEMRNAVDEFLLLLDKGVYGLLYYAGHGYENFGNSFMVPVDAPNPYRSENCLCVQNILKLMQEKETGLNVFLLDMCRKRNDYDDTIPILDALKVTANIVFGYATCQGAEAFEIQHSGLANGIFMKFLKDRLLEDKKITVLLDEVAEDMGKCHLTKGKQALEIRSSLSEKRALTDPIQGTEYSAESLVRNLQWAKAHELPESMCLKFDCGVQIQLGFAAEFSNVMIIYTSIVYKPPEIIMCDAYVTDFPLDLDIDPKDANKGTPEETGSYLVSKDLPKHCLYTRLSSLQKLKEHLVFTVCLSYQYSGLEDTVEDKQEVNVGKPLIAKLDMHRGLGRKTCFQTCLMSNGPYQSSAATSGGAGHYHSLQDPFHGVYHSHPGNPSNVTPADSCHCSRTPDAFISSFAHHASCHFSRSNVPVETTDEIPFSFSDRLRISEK
Protocol: Inhibition of MALT1 activity by the presence of small molecules was evaluated using MALT-1 Fluorogenic Peptide Cleavage Assay. The assay utilizes a quenched AMC-labelled peptide that contains the MALT-1 recognition sequence and cleavage site (LRSR). MALT-1 mediated cleavage of the peptide relieves the quenching and leads to an increase in fluorescence at excitation (342 nm) and emission (441 nm). The following reagents were obtained commercially and used to prepare standard reagent formulations as further described below: […] The standard reagent formulations used in this assay were prepared and stored as follows. A 1.1 M solution of sodium citrate (161.3 g, 500 mL) was prepared and stored at room temperature. A 10% (w/v) CHAPS solution (2.0 g, 20 mL) was prepared and stored at 4° C. A 500 mM HEPES solution having pH of 6.89 was prepared from 200 mL of a 1 M HEPES solution having a pH of 7.5 using concentrated hydrochloric acid and brought to a final volume of 400 mL with […]® H2O. The substrate, 10 mM Ac-LRSR-AMC Peptide, was prepared (10 mg, 1.370 mL DMSO) and stored at -20° C. Compounds were plated to provide a 2% DMSO final concentration using a ProxiPlate-384 Plus F Black 384-shallow well microplate. The assay-ready plates were equilibrated to room temperature. […] DMSO was added only when compound plates had not been DMSO-backfilled to 2%. MALT-1 was thawed and kept on ice. Peptide substrate was thawed on the bench under ambient conditions. A MALT-1 enzyme working stock was prepared from Avi-tagged FL MALT-1 (40 nM in a prepared reagent volume of 16.5 μL) and the reaction buffer (13.0 mL). MALT1 working stock (5 μL) was added to each well of the microplate. MALT-1 was pre-incubated with compounds for 30 minutes at room temperature. […] The plates were covered and incubated on the bench at room temperature for 90 minutes. Fluorescence intensity was determined using a CLARIOstar microplate reader (BMG LABTECH) using the optimised AMC mode. Before taking readings, a 70% gain was applied on the neutral control well. Compound data were normalised to % Inhibition and used to plot sigmoidal concentration response curves to yield various parameters including IC50. […] Compounds in which an IC50 was not measured are designated as “N/A”.

[2] = tested on: NF-kB; assay: NF-kB reporter assay in Jurkat cells stimulated with aCD3/aCD28/PMA; format: cell-based; details: Homo sapiens, Jurkat, Jurkat cells, 1 hr compound incubation, aCD3/aCD28/PMA stimulation 4 hr, One-Glo readout; read-out: NF-kB Reporter Assay IC50
Protocol: Jurkat cells were maintained in complete RPMI 1640 media supplemented with 10% FBS. Prior to the assay, 120 nL of the serial diluted compound was added in each well of 384-well flat bottom white plate (Corning #3570) by using liquid handler Echo550. Jurkat cells were harvested by centrifugation at 120 g for 10 min and resuspended in fresh RPMI 1640 media without serum. 30 μL of cells (25,000 cells) were seeded in each well of 384-well plate containing compound. After 1 hr incubation at 37° C. in a 5% CO2 incubator, 10 μL of diluted aCD3/aCD28/PMA (final concentration at 5 μg/mL, 5 μg/mL and 0.03 μg/mL, respectively) in RPMI 1640 without serum were added to each well. After incubation at 37° C. in 5% CO2 for 4 hr, 30 μL of One-Glo reagent (Promega #E6120) was added into each well. The plate was left at room temperature for 5 min and the signal was measured on EnVision (PerkinElmer).
Compounds in which an IC50 was not measured are designated as “N/A”.

IC50 [1] | IC50 [2] | SMILES
1 to 2.5 µM | < 0.4 µM | Cc1cn(-c2ccc(S(=O)(=O)Nc3cccc4cnn(C)c34)cn2)nc1C [Example I-58, 6-(3,4-Dimethylpyrazol-1-yl)-N-(1-Methylindazol-7-yl)Pyridine-3-Sulfonamide]
> 2.5 µM | < 0.4 µM | Cc1nn(-c2ccc(S(=O)(=O)Nc3cccc4cnn(C)c34)cn2)c(C)c1C [Example I-59, N-(1-Methyl-1H-Indazol-7-yl)-6-(3,4,5-Trimethyl-1H-Pyrazol-1-yl)Pyridine-3-Sulfonamide]
> 2.5 µM | < 0.4 µM | Cn1ncc2cccc(NS(=O)(=O)c3ccc(-n4nccc4C4CC4)nc3)c21 [Example I-62, 6-(5-Cyclopropylpyrazol-1-yl)-N-(1-Methylindazol-7-yl)Pyridine-3-Sulfonamide]
< 0.4 µM | < 0.4 µM | Cc1ccc2cnn(C)c2c1NS(=O)(=O)c1ccc(-c2cc(C(F)(F)F)n[nH]2)nc1 [Example I-63, N-(1,6-dimethyl-1H-indazol-7-yl)-6-(5-(trifluoromethyl)-1H-pyrazol-3-yl)pyridine-3-sulfonamide]
> 2.5 µM | > 2.5 µM | Cn1nnc2cccc(NS(=O)(=O)c3ccc(-n4cc(C(F)(F)F)cn4)nc3)c21 [Example I-64, N-(1-Methyl-1H-Benzo[D][1,2,3]Triazol-7-yl)-6-(4-(Trifluoromethyl)-1H-Pyrazol-1-yl)Pyridine-3-Sulfonamide]
1 to 2.5 µM | < 0.4 µM | Cc1cc(S(=O)(=O)Nc2cccc3cnn(C)c23)cnc1-n1cc(C(F)(F)F)cn1 [Example I-65, 5-Methyl-N-(1-Methyl-1H-Indazol-7-yl)-6-(4-(Trifluoromethyl)-1H-Pyrazol-1-yl)Pyridine-3-Sulfonamide]
< 0.4 µM | < 0.4 µM | [2H]C([2H])([2H])Oc1ccc2cnn(C)c2c1NS(=O)(=O)c1ccc(-n2cc(C(F)(F)F)cn2)nc1 [Example I-68, N-(6-(Methoxy-D3)-1-Methyl-1H-Indazol-7-yl)-6-(4-(Trifluoromethyl)-1H-Pyrazol-1-yl)Pyridine-3-Sulfonamide]

Second part, the compound before the results:

SMILES | IC50 [1] | IC50 [2]
Cn1ncc2cccc(NS(=O)(=O)c3ccc(-n4cc(C(F)F)cn4)nc3)c21 [Example I-50, 6-[4-(Difluoromethyl)Pyrazol-1-Yl]-N-(1-Methylindazol-7-yl)Pyridine-3-Sulfonamide] | 0.4 to 1 µM | < 0.4 µM
Cn1ncc2cccc(NS(=O)(=O)c3ccc(-n4ccc(C(F)F)n4)nc3)c21 [Example I-51, 6-[3-(Difluoromethyl)Pyrazol-1-Yl]-N-(1-Methylindazol-7-yl)Pyridine-3-Sulfonamide] | 1 to 2.5 µM | < 0.4 µM
Cc1cnn(-c2ccc(S(=O)(=O)Nc3cccc4cnn(C)c34)cn2)n1 [Example I-52, N-(1-Methyl-1H-Indazol-7-yl)-6-(4-Methyl-2H-1,2,3-Triazol-2-yl)Pyridine-3-Sulfonamide] | > 2.5 µM | 1 to 2.5 µM
Cc1cn(-c2ccc(S(=O)(=O)Nc3cccc4cnn(C)c34)cn2)nn1 [Example I-53, 6-(4-Methyl-1H-1,2,3-Triazol-1-yl)-N-(1-Methyl-1H-Indazol-7-yl)Pyridine-3-Sulfonamide] | > 2.5 µM | 0.4 to 1 µM
Cn1ncc2cccc(NS(=O)(=O)c3ccc(-n4cc(C5(F)CC5)cn4)nc3)c21 [Example I-55] | > 2.5 µM | < 0.4 µM
Cn1ncc2cccc(NS(=O)(=O)c3ccc(-n4cc(C5(O)CC5)cn4)nc3)c21 [Example I-56, 6-(4-(1-hydroxycyclopropyl)-1H-pyrazol-1-yl)-N-(1-methyl-1H-indazol-7-yl)pyridine-3-sulfonamide] | > 2.5 µM | < 0.4 µM
Cc1cnn(-c2ccc(S(=O)(=O)Nc3cccc4cnn(C)c34)cn2)c1C [Example I-57, 6-(4,5-Dimethylpyrazol-1-yl)-N-(1-Methylindazol-7-yl)Pyridine-3-Sulfonamide] | > 2.5 µM | < 0.4 µM

Source: patent US20240150365A1 (Hotspot Therapeutics, Inc., priority 2022, published 2024)
